Structures are written as SMILES.

This note sets out measurements from ChEMBL document CHEMBL1133266, “Effects of 2-(substituted-sulfanyl)-3,5-dihydro-imidazole-4-one and 2-(substituted-sulfanyl)-1H-imidazole-4,5-dione derivatives on serum HDL-cholesterol” (2000).

The first test has as its system Rattus norvegicus. Put plainly: Compound was evaluated for increase of high density lipoprotein cholesterol (HDL-C) in cholesterol fed male rats after treatment for 8 days at a dose of 80 mg/kg/day; Average % HDL-C change in 6 animals. Format: functional.
Take `CCSC1=NCC(=O)N1c1ccc(F)cc1`: the Change worked out at 140%.

A further test concerns Rattus norvegicus. Put plainly: Compound was evaluated in vivo for the increase of very low density lipoprotein cholesterol (VLDL-C) in cholesterol fed male rats. The class given is functional.
Take `CCSC1=NCC(=O)N1c1ccccc1C`: the Increase worked out at 78%.

The next test relates to Rattus norvegicus. The experiment in a line: Increase of high density lipoprotein cholesterol (HDL-C) in cholesterol fed male rats after treatment for 8 days at a dose of 100 mg/kg/day; Average % HDL-C change in 6 animals. The class given is functional.
For `CCSC1=NCC(=O)N1c1c(Cl)cccc1Cl`, the Change amounted to 169%.
Same read-out and setting: in the case of `CCSC1=NCC(=O)N1c1ccccc1` it was 89%.
In turn, `CCSC1=NCC(=O)N1c1ccc(C)c(Cl)c1` yielded a Change of 45%.
Still for that read-out and setting: in the case of `CCSC1=NC(C)C(=O)N1c1cc(Cl)ccc1C` (stereo not drawn) it was 211%; in that of `CCSC1=NCC(=O)N1c1c(C)cccc1Cl`, 71%.
On the same count and under the same terms, in the case of `CCSC1=NCC(=O)N1c1cccc(Cl)c1C` it was 26%; in that of `CCSC1=NCC(=O)N1c1cc(Cl)ccc1OC`, 66%; in that of `CCSC1=NCC(=O)N1c1ccccc1Cl`, 74%.
`CCSC1=NCC(=O)N1c1ccccc1C` displayed a Change of 139%.
With `CCSC1=NCC(=O)N1c1cc(F)ccc1C`, the Change stood at 32%.
Compound `CCSC1=NC(=O)C(=O)N1c1ccccc1C` registered a Change of 48%.
Same read-out and setting: to `CCSC1=NCC(=O)N1c1cc(Cl)ccc1C` belongs 153%.
In turn, `CCSC1=NC(=O)C(=O)N1c1cc(Cl)ccc1C` gave a Change of 85%.
`CCSC1=NCC(=O)N1c1ccc(Cl)cc1C` had a Change of 39%.
On the same count and under the same terms, in the case of `Cc1ccc(Cl)cc1N1C(=O)CN=C1SCc1ccccc1` it was 102%; in that of `CCSC1=NCC(=O)N1c1c(C)cccc1C`, 75%.
